Read-outs that look alike come from different tables or passages of the source. Each block holds one molecule with its values, some of them ahead of it.
Key:
[1] = tested on: Normal human keratinocytes; assay: Rate of DNA synthesis in keratinocytes (3H-thymidine incorporation; a decrease indicates growth inhibition / differentiation); assay type: cell-based; details: for cell growth inhibition: Table 1 (image); for activity at 3 µM: 3 μM lipid alone, read-out: DNA synthesis, 0 nM 25-OH-D3
Description: Methodology Used for Determining the Rate of DNA Synthesis in Keratinocytes After Treatment With Various Actives
• 1. Normal human keratinocytes isolated from neonatal foreskins by trypsin treatment were grown in DME medium/10% fetal calf serum in the presence of irradiated 3T3 mouse fibroblasts for establishing dividing keratinocyte colonies. Keratinocytes were grown under the above condition until their third passage. • 2. For the experiments, third passage keratinocytes were plated into a serum-free keratinocyte growth medium (KGM; obtained from Clonetics Corporation, San Diego, CA) containing 0.15 mM calcium. 20,000 to 30,000 cells were plated into each well of 24 well cell culture plates and grown for 5 days, until the cells reach about 80% confluence. • 3. Medium was changed to fresh medium and the various test materials were added to the medium from an ethanolic stock solution (10 AM). The final ethanol concentration in the cultures was kept below 0.2%. Control cultures received no tested material but were dosed with 0.2% ethanol. Each compound or combination was tested in three separate wells. By 4PM, 1 uCi of ³H-thymidine (Amersham Corp., Sp activity 40 Ci/mmol) was added to the 1 ml medium in each well. The cells were incubated overnight and 24 hours later (10 AM next day) the amount of ³H-thymidine associated with the cellular DNA of keratinocytes was assessed as described below. • 4. The medium was aspirated, and the wells washed with 1 ml phosphate-buffered saline. The DNA and proteins of the cells in the plate were then precipitated by adding 1 ml of ice-cold 10% trichloroacetic acid (TCA). The plates were left on ice for 30 minutes to complete the precipitation process. TCA was then aspirated and each well was then washed four times with 5% TCA. The plates were then dried on a filter pad and the cells in the wells were dissolved in 0.5 ml of 0.1 N sodium hydroxide. The sodium hydroxide was then neutralized using 0.1 N hydrochloric acid and the solution (1 ml total volume) was then transferred to a scintillation vial. 100 ul samples from each vial were used for protein assay using BCA protein assay reagent obtained from Pierce Chemical Company. 8 ml of a scintillation fluid (Ecolume) was added to the rest of the solution in the vial, and the vials were counted in a scintillation counter to determine the amount of radioactivity in each vial. The DNA synthesis rate was then calculated as cpm ³H thymidine incorporated into total cellular DNA/microgram of cell protein for each individual well. Mean and standard deviation for each group was also calculated. […] All lipids listed in Tables 1-5 below were synthesized in-house. 25-OH-D₃ and 1,25-(OH)₂D₃ were obtained from Hoffman La Roche. Vitamin D ₃ was obtained from Sigma. • 6.

[2] = tested on: Normal human keratinocytes; assay: Vitamin D3 metabolites' uptake by keratinocytes (cell associated radioactivity); assay type: in vitro ADME; details: for cell associated radioactivity: 60 picomolar; for rate of uptake by keratinocytes: Table 6, in words
Description: Vitamin D₃ Metabolites' Uptake:
Normal human keratinocytes were grown to confluence in Keratinocyte growth medium (KGM) containing 0.15 mM calcium. Medium was changed to fresh medium. The cells were then incubated in duplicate with 10,000 cpm (60 picomolar, or 25 picogram/ml medium) of 25-OH-D₃ or 1,25-(OH) ₂D₃ for various times (0 to 240 minutes). At different time intervals indicated in the Table below, the medium of appropriate wells were aspirated, and the wells were washed three times with a 0.2% bovine serum albumin solution in 50 mM Tris/0.15 M sodium chloride buffer pH 7.4. After the wash the cells in the wells were dissolved in 0.1 N sodium hydroxide, neutralized with 0. 1 N hydrochloric acid, mixed with 5 ml of scintillation fluid (Ecolume) and counted in a beta counter. The amount of cpm associated with the cells was calculated as the percent of total cpm added for each time point studied. Data in the table is expressed as cell associated radioactivity as % of total added. Each reported result is a mean of duplicate determinations.

keratinocytes = details: as shown by Bikle et al.; cited from earlier work
[3] = 100 nM, alone, 25-OH-D3 in two experiments, 1,25-(OH)2D3 in one experiment
[4] = 1000 nM, compound alone, consistently observed only at this concentration
[5] = 0 minutes, mean of duplicate determinations
[6] = Homo sapiens, Keratinocyte, 24 h, Table 5

SMILES: C=C1/C(=C\C=C2/CCC[C@]3(C)[C@@H]([C@H](C)CCCC(C)(C)O)CC[C@@H]23)C[C@@H](O)C[C@@H]1O [1,25-(OH)2D3, 1,25-dihydroxycholecalciferol]
cell growth inhibition [1, 3]: cell growth inhibition was also observed
cell growth inhibition [1, 4]: statistically significant cell growth inhibition
cell associated radioactivity [2, 5]: 0.8 % of total added
cell associated radioactivity ([2]; 2 minutes): 2.7 % of total added
cell associated radioactivity ([2]; 5 minutes): 4.2 % of total added
cell associated radioactivity ([2]; 10 minutes): 13.0 % of total added
cell associated radioactivity ([2]; 15 minutes): 10.0 % of total added
cell associated radioactivity ([2]; 30 minutes): 20.0 % of total added
cell associated radioactivity ([2]; 60 minutes): 15.6 % of total added
cell associated radioactivity ([2]; 120 minutes): 26.2 % of total added
cell associated radioactivity ([2]; 240 minutes): 30.8 % of total added
rate of uptake by keratinocytes [2]: rapidly taken up
catabolism by keratinocytes (keratinocytes): catabolized to inactive metabolites rapidly

cell associated radioactivity [2, 5]: 2.5 % of total added
cell associated radioactivity ([2]; 2 minutes): 3.2 % of total added
cell associated radioactivity ([2]; 5 minutes): 0.3 % of total added
cell associated radioactivity ([2]; 10 minutes): 3.4 % of total added
cell associated radioactivity ([2]; 15 minutes): 8.3 % of total added
cell associated radioactivity ([2]; 30 minutes): 8.1 % of total added
cell associated radioactivity ([2]; 60 minutes): 6.2 % of total added
cell associated radioactivity ([2]; 120 minutes): 6.8 % of total added
cell associated radioactivity ([2]; 240 minutes): 9.8 % of total added
rate of uptake by keratinocytes [2]: substantially slower rate
SMILES: C=C1CC[C@H](O)C/C1=C/C=C1\CCC[C@]2(C)[C@@H]([C@H](C)CCCC(C)(C)O)CC[C@@H]12 [Formula 25-OH-D3, 25-hydroxycholecalciferol]
activity at 0.001 µM ([1]; Homo sapiens, Keratinocyte, 24 h, 1 nM 25-OH-D3, no ceramide, read-out: DNA synthesis, 25-OH-D3 alone): 99.3 ± 1.91%
activity at 0.01 µM ([1]; Homo sapiens, Keratinocyte, 24 h, 10 nM 25-OH-D3, no ceramide, read-out: DNA synthesis, 25-OH-D3 alone): 97.2 ± 5.92%
activity at 0.1 µM ([1]; Homo sapiens, Keratinocyte, 24 h, 100 nM 25-OH-D3, no ceramide, read-out: DNA synthesis, 25-OH-D3 alone): 86.5 ± 5.47%
activity at 1 µM ([1]; Homo sapiens, Keratinocyte, 24 h, 1000 nM 25-OH-D3, no ceramide, read-out: DNA synthesis, 25-OH-D3 alone): 67.8 ± 5.92%
minimal effective concentration ([1]; Homo sapiens, Keratinocyte, 24 h, 25-OH-D3 employed alone, read-out: concentration of 25-OH-D3 at which inhibition of keratinocyte growth was observed): 0.1 to 1 µM
activity at 0.01 µM ([1]; Homo sapiens, Keratinocyte, 24 h, Table 4, 10 nM vitamin D3 or its metabolite, no ceramide, read-out: DNA synthesis, No ceramide): 95.3 ± 6.9%
activity at 0.1 µM ([1]; Homo sapiens, Keratinocyte, 24 h, Table 4, 100 nM vitamin D3 or its metabolite, no ceramide, read-out: DNA synthesis, No ceramide): 88.5 ± 7.2%
activity at 0.01 µM ([1]; Homo sapiens, Keratinocyte, 24 h, Table 5, 10 nM 25-OH-D3, No ceramide, read-out: DNA synthesis, 10 nM 25-OH-D3): 95.3 ± 6.9%
activity at 0.1 µM ([1]; Homo sapiens, Keratinocyte, 24 h, Table 5, 100 nM 25-OH-D3, No ceramide, read-out: DNA synthesis, 100 nM 25-OH-D3): 88.5 ± 7.2%
cell growth inhibition [1, 3]: cell growth inhibition was also observed
cell growth inhibition [1, 4]: statistically significant cell growth inhibition

SMILES: CCCCCCCCCCCCCCCCN(CC(O)CO)C(C)=O (stereo not drawn) [neoceramide (Formula F), N-(2,3-dihydroxypropyl)-N-(hexadecyl)ethanamide]
activity at 3 µM [1, 6]: 81.1 ± 4.9%

SMILES: CCCCCCCCCCCCCCCCN(CC(O)CO)C(=O)CCCCC (stereo not drawn) [neoceramide (Formula G), N-(2,3-dihydroxypropyl)-N-(hexadecyl)hexanamide]
activity at 3 µM [1, 6]: 103 ± 12.3%

SMILES: CCCCCCCCCCCCCCCCN(CC(O)CO)C(=O)C(O)CCCCCC (stereo not drawn) [neoceramide (Formula H), N-(2,3-dihydroxypropyl)-N-(hexadecyl)-2-hydroxyoctanamide]
activity at 3 µM [1, 6]: 85.7 ± 0.9%

SMILES: CCCCCCCCCCCCN(CC(O)CO)C(=O)C(O)CCCCCC (stereo not drawn) [neoceramide (Formula M), N-(2,3-dihydroxypropyl)-N-(dodecyl)-2-hydroxyoctnamide]
activity at 3 µM [1, 6]: 81.5 ± 6.4%

SMILES: CCCCCCCCCCCCCCC(O)CN(CCO)C(=O)CCCCC (stereo not drawn) [pseudoceramide (Formula D)]
activity at 3 µM [1, 6]: 62 ± 12.8%

SMILES: CCCCCCCCCCCCCCCCOCC(O)CN(CCO)C(C)=O (stereo not drawn) [pseudoceramide (Formula E)]
activity at 3 µM [1, 6]: 95.9 ± 22%

SMILES: C=C1CC[C@H](O)C/C1=C/C=C1\CCC[C@]2(C)[C@@H]([C@H](C)CCCC(C)C)CC[C@@H]12 [vitamin D3, Vitamin D₃]
growth inhibition ([1]; vitamin D3 employed alone (Table 4)): does not show statistically significant growth inhibition
synergy with the ceramide in inhibiting keratinocyte growth ([1]; with ceramide of Formula A, even at 100 nM vitamin D3): did not show any synergy

Reference: patent publication EP0711558A1, “Compositions for topical application to skin, hair and nails” (UNILEVER PLC, priority 1994, dated 1996)
